The conditions of data set [1]: female, human, in vivo, 20 h.
Experimental: Twelve healthy Caucasian women aged 54-62 years (mean 58.3 years), with a weight of 51 to 67 kg (mean 60.6 kg±5.1) and a body mass index ranging between 19.4-25.5 kg/m2 (mean 23.12 kg/m2±2.05) were enrolled. They were administered, on three separate treatment periods of one week, either two consecutive (3Z,5S) doses of 600 mg/day (administered to subjects using 3 dispersible tablets of 200 mg in 150 ml of water) or two intramuscular injections of 12 mg/day betamethasone or both drugs in combination.
Therefore, pharmacokinetic parameters of the treatment with (3Z,5S) dispersible tablets were calculated for 12 subjects, whereas pharmacokinetic parameters of the combination treatment were assessed for 11 participants.
During each treatment period of one week, blood samples were collected for the analysis of (3Z,5S) and betamethasone at time points 0 (pre-dose) and at 0.25, 0.5, 0.75, 1, 1.5, 2, 3, 4, 6, 8, 10, 12, 16, 20 and 24 hours after first dose on day 1. The plasma was prepared and stored below −20° C. All samples were analysed using validated LC-MS/MS methods. For the analysis of (3Z,5S), the lower limit of quantification was 1.0 ng/ml. For betamethasone analyses, the lower limit of quantification was 0.5 ng/ml.
Pharmacokinetic parameters were estimated by non-compartmental methods using the Phoenix® WinNonLin® version 6.3 (Pharsight). […]
The nature of data set [2]: Qualitative solubility/crystallisation tests in solvents (15 mg scale). In kind it is physicochemical.

The structures appear in SMILES notation.

In the case of `CO/N=C1/C[C@@H](CO)N(C(=O)c2ccc(-c3ccccc3C)cc2)C1` [(3Z,5S), (3Z,5S)-5-(hydroxymethyl)-1-[(2′-methyl-1,1′-biphenyl-4-yl)carbonyl]pyrrolidin-3-one-O-methyloxime], the “% of Cmax” value in data set [1] was determined as 25%. Further, the “Qualitative solubility, Dissolves in” value was found to be 40 vol hot in data set [2] (solvent DIPE); 4 vol hot in data set [2] (solvent IPA); 4 vol hot in data set [2] (solvent MIBK); 4 vol cold in data set [2] (solvent THF); 6 vol hot in data set [2] (solvent tBuOH); 2 vol cold in data set [2] (solvent toluene). In addition, the “Qualitative solubility, Dissolves in / Comment” value in data set [2] (solvent heptanes) is “insoluble in 20 vol”.

The values above are taken from patent publication US20170065556A1, “ORAL FORMULATIONS OF PYRROLIDINE DERIVATIVES” (OBSEVA S.A., priority 2013, published 2017).
